The results in this text go back to patent US20230365583A1, “FUSED TRICYCLIC PYRIMIDINE-THIENO-PYRIDINE SMALL MOLECULE INHIBITORS OF UBIQUITIN-SPECIFIC PROTEASE 28” (Dana-Farber Cancer Institute, Inc., priority 2020, published 2023).

Each structure is given as a SMILES string. pIC50: −log10 of the molar value.

T1 sequence (Q96RU2 whole entry): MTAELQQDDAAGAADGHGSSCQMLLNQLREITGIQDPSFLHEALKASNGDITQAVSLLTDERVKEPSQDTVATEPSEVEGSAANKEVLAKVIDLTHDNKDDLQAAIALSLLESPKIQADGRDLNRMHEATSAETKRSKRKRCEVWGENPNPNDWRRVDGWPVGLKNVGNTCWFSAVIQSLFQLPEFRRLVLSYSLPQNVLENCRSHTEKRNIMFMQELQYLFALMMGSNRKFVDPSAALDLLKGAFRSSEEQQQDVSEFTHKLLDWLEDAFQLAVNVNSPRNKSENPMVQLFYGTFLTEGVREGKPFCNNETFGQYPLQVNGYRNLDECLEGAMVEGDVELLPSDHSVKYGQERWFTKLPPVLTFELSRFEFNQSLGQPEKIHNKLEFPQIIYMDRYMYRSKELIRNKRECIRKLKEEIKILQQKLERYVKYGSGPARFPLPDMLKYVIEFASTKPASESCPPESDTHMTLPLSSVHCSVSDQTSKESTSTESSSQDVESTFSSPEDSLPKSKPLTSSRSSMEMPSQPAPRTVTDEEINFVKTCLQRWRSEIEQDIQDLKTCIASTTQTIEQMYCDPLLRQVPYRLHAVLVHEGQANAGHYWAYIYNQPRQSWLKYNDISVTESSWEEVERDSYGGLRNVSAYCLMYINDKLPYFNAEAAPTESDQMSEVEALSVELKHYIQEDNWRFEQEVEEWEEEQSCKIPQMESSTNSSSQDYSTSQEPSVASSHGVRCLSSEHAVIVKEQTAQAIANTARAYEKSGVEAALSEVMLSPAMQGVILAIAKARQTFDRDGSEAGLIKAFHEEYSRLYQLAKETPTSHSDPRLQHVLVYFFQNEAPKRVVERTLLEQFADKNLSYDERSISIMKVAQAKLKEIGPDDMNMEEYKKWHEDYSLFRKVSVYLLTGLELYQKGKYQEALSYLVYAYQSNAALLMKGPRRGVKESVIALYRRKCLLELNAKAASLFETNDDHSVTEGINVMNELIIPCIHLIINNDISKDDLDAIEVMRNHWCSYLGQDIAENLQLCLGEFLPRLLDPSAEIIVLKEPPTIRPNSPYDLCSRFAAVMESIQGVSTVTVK

The first assay addresses T1, USP28 (Homo sapiens (Human), UniProt Q96RU2). Put plainly: Ubiquitin-Rhodamine110 assay. The format is biochemical. Conditions: USP28 at 1 nM; 30 minutes pre-incubation at room temperature; Ubiquitin-Rho110 substrate 125 nM. Here is the method:
USP28 (at 1 nM) was pre-incubated with different concentrations of inhibitors or DMSO as a control in 50 mM Tris pH 8, 50 mM NaCl, 0.002% Tween-20, 5 mM DTT. Compounds and protein were incubated for 30 minutes at room temperature prior to the addition of Ubiquitin-Rho110 (Boston Biochem) substrate for a final concentration of 125 nM. The initial rate of the reaction was measured by collecting fluorescence data at one-minute interval over 30-minute period using a Clariostar® fluorescence plate reader at excitation and emission wavelength of 485 nm and 535 nm, respectively. The calculated initial rate values were plotted against inhibitor concentrations to determine IC50s. All the experimental data were plotted using GraphPad Prism®.
`CCCc1nc2sc(C(=O)NCC(C)c3ccc(OC)c(OC)c3)c(N)c2c2c1CCC2` (centres unmarked) [Compound 36] gave a pIC50 above 6.00.
As to `CCCc1nc2sc3c(OCCc4ccc(OC)c(OC)c4)ncnc3c2c2c1CCC2` [Compound 44], the negative logarithm of the IC50 (pIC50) is 5.00 to 6.00.
In the case of `CCCc1nc2sc3c(NCCc4ccc(N5CCNCC5)cc4)ncnc3c2c2c1CCC2` [Compound 19], the pIC50 was above 6.00.
Molecule `CCCc1nc2sc(C(=O)N[C@@H](C)Cc3ccc(OC)cc3)c(N)c2c2c1CCC2` [Compound 47] showed a pIC50 above 6.00.
As to `CCCc1nc2oc(C(=O)NCCc3ccc(OC)c(OC)c3)c(N)c2c2c1CCC2` [Compound 27], the negative-log IC50 (pIC50) is above 6.00.
In turn, `CCCc1nc2sc(C(=O)NCCc3ccc(OC)c(OC)c3)c(NCc3ccccc3)c2c2c1CCC2` [Compound 33] had a pIC50 above 6.00.
In turn, `CCCc1nc2sc3c(NCc4ccc(Cl)c(Cl)c4)ncnc3c2c2c1CCC2` [Compound 5] had a pIC50 below 4.00.
Take `CCCCCc1nc2sc(C(=O)NCCc3ccc(OC)c(OC)c3)c(N)c2c2c1CCC2` [Compound 49]: the pIC50 was above 6.00.
`COc1ccc(CCNc2ncnc3c2sc2ncc4c(c23)CCC4)cc1OC` [Compound 8]: the pIC50 was 5.00 to 6.00.
Still for that read-out and setting: under `CCCc1nc2sc(C(=O)NCCc3ccc(OC)c(OC)c3)c(N)c2c2c1CCC2` [Compound 18] stands above 6.00.
Regarding `COc1ccc(CCNC(=O)c2sc3nc(C)ccc3c2N)cc1OC` [Compound 20], the pIC50 is above 6.00.
The molecule `CCCc1nc2sc3c(NC4CCCCC4)ncnc3c2c2c1CCC2` [Compound 3] showed a pIC50 of 4.00 to 5.00.
Regarding `COc1ccc(CCNC(=O)c2sc3nc(C)c4c(c3c2N)CCC4)cc1OC` [Compound 25], the pIC50 is above 6.00.
Turning to `CCCc1nc2sc3c(NCCc4ccc(OC)c(OC)c4)ncnc3c2c2c1CCC2` [Compound 1], the pIC50 is above 6.00.
For `CCCc1nc2sc3c(N(C)CCc4ccc(OC)c(OC)c4)ncnc3c2c2c1CCC2` [Compound 7], the pIC50 was 4.00 to 5.00.
Same read-out and setting: under `CCCc1ccc2c(N)c(C(=O)NCCc3ccc(OC)c(OC)c3)sc2n1` [Compound 28] stands above 6.00; under `CCCc1ccc2c(n1)sc1c(NCCc3ccc4c(c3)OCCO4)ncnc12` [Compound 39], above 6.00.
On the same count and under the same terms, with `CCCc1nc2sc(C(=O)NCCc3ccc(O)c(O)c3)c(N)c2c2c1CCC2` [Compound 32] the figure was above 6.00; with `COc1ccc(CCNC(=O)c2sc3nc4c(c(C)c3c2N)CCC4)cc1OC` [Compound 26], above 6.00; with `CCCc1nc2sc(C(=O)NC(C)Cc3ccc(OC)c(OC)c3)c(N)c2c2c1CCC2` (centres unmarked) [Compound 37], above 6.00.
`CCCc1nc2sc3c(NCc4ccco4)ncnc3c2c2c1CCC2` [Compound 2]: the pIC50 is above 6.00.
`CCCc1nc2sc3c(NCCCc4ccc(OC)c(OC)c4)ncnc3c2c2c1CCC2` [Compound 14] had a pIC50 of 4.00 to 5.00.
The same measure, in the same setting: under `CCCc1nc2sc3c(NCCc4ccc(Cl)c(Cl)c4)ncnc3c2c2c1CCC2` [Compound 4] stands 4.00 to 5.00.
With `Cc1ccc2c(N)c(C(=O)NCCc3ccc(N4CCNCC4)cc3)sc2n1` [Compound 30], the pIC50 was above 6.00.
`CCCc1nc2sc(C(=O)NCCc3ccc(N4CCNCC4)cc3)c(N)c2c2c1CCC2` [Compound 21]: the pIC50 is above 6.00.
In turn, `CCCc1nc2sc(C(=O)NC[C@@H](C)c3ccccc3)c(N)c2c2c1CCC2` [Compound 41] gave a pIC50 above 6.00.
As for `CCCc1nc2sc3c(NCCc4cc(OC)c(OC)c(OC)c4)ncnc3c2c2c1CCC2` [Compound 16], the pIC50 is 5.00 to 6.00.
Molecule `CCCc1nc2sc(C(=O)NCCc3ccc(OC)c(OC)c3)c(N)c2c2c1CCCC2` [Compound 46] had a pIC50 above 6.00.
`Cc1ccc2c(N)c(C(=O)NCCc3ccc(N4CCN(C(=O)OC(C)(C)C)CC4)cc3)sc2n1` [Compound 31] gave a pIC50 above 6.00.
As to `CCCCCc1nc2sc3c(NCCc4ccc(OC)c(OC)c4)ncnc3c2c2c1CCC2` [Compound 48], the pIC50 was above 6.00.
For the molecule `CCCc1ccc2c(n1)sc1c(NCCc3ccc(N(C)C)cc3)ncnc12` [Compound 42], the negative-log IC50 (pIC50) was above 6.00.
In turn, `CCCc1nc2sc3c(NCCc4ccc(OC)c(OC)c4)ncnc3c2c2c1CCCC2` [Compound 45] gave a negative logarithm of the IC50 (pIC50) above 6.00.
The molecule `CCCc1nc2sc(C(=O)NCCc3ccc(OC)c(OC)c3)c(NC(C)=O)c2c2c1CCC2` [Compound 29] gave a pIC50 above 6.00.
In the case of `CCCc1nc2sc(C(=O)N[C@H](C)Cc3ccc(OC)cc3)c(N)c2c2c1CCC2` [Compound 50], the pIC50 was above 6.00.
Same read-out and setting: with `Cc1ccc2c(N)c(C(=O)NCCc3ccc(C4CC5CCC(C4)N5)cc3)sc2n1` (centres unmarked) [Compound 23] the figure was above 6.00; with `CCCc1ccc2c(n1)sc1c(NCC(C)c3ccc(OC)c(OC)c3)ncnc12` (centres unmarked) [Compound 43], above 6.00; with `CCCc1nc2sc3c(NCCc4ccc(N(C)C)cc4)ncnc3c2c2c1CCC2` [Compound 12], above 6.00.
Molecule `CCCc1nc2sc(C(=O)NC[C@H](C)c3ccccc3)c(N)c2c2c1CCC2` [Compound 40] gave a pIC50 above 6.00.
Take `Cc1ccc2c(N)c(C(=O)NCCc3ccc(C4CCNCC4)cc3)sc2n1` [Compound 22]: the negative-log IC50 (pIC50) is above 6.00.
For the molecule `CCCc1nc2sc(C(=O)NCCc3ccc(OC)c(OC)c3)c(N)c2cc1C(=O)N(C)C` [Compound 35], the pIC50 was above 6.00.
Molecule `CCCc1nc2sc3c(NCc4ccc(OC)c(OC)c4)ncnc3c2c2c1CCC2` [Compound 9] gave a pIC50 above 6.00.
Consider `CCCc1ccc2c(n1)sc1c(NCCc3ccc(OC)c(OC)c3)ncnc12` [Compound 38], for which the pIC50 is above 6.00.
The same measure, in the same setting: with `CCCc1nc2sc3c(NCCc4cccc(OC)c4)ncnc3c2c2c1CCC2` [Compound 11] the figure was 4.00 to 5.00.
With `CCCc1nc2sc3c(NCCc4c[nH]c5ccccc45)ncnc3c2c2c1CCC2` [Compound 15], the negative logarithm of the IC50 (pIC50) is 5.00 to 6.00.
Take `CCCc1nc2sc3c(NCCc4ccc(OC)cc4)ncnc3c2c2c1CCC2` [Compound 10]: the negative-log IC50 (pIC50) was above 6.00.
The molecule `CCCc1nc2sc3c(NCCc4cccs4)ncnc3c2c2c1CCC2` [Compound 17] had a pIC50 above 6.00.
Consider `CCCc1nc2sc3c(NCCc4ccc5c(c4)OCCO5)ncnc3c2c2c1CCC2` [Compound 13], for which the pIC50 is 5.00 to 6.00.
Take `COc1ccc(CCNc2ncnc3c2sc2ncccc23)cc1OC` [Compound 6]: the negative-log IC50 (pIC50) is 5.00 to 6.00.
Same read-out and setting: with `Cc1ccc2c(N)c(C(=O)NCCc3ccc(C4CC5CCC(C4)N5C(=O)OC(C)(C)C)cc3)sc2n1` (centres unmarked) [Compound 24] the figure was above 6.00.

A further assay addresses T1, USP28. Nature of the assay: Competitive activity-based protein profiling (Ub-VME labeling, Western blot) in K562 cell lysate. As to conditions: K562 cells lysed, treated with compound for 1 h followed by incubation with Ub-VME; Western blot (FIG. 2). Format: binding. Here is the method: K562 cells were lysed and treated with indicated concentrations of compound 1 for 1 h followed by incubation with Ub-VME. Ub-VME covalently modifies USP28, resulting in higher MW band observed by Western blot.
Cells were pelleted, washed with PBS buffer, lysed on ice (20 mM Tris pH 8, 150 mM NaCl, 1% NP-40, 10% glycerol, 1 mM TCEP, phosphatase inhibitor cocktails (Sigma P5726 and Calbiochem 524624), and protease inhibitors (pepstatin, leupeptin, PMSF, and aprotinin), and clarified by centrifugation. Protein content was quantified by BCA and diluted to 2 mg/mL in lysis buffer. Compounds were added at desired concentrations and incubated at room temperature for 30 minutes. Samples were then supplemented with 2 uM HA-Ub-VS and incubated at room temperature with shaking for 15 minutes. Reactions were quenched with 4×LDS sample buffer (Thermo Fisher B0007) supplemented with 10% BME, vortexed vigorously, and heated to 95° C. for 5 minutes. Samples were resolved by SDS-PAGE and analyzed by Western blot with the indicated antibodies.
For the molecule `CCCc1nc2sc3c(NCCc4ccc(OC)c(OC)c4)ncnc3c2c2c1CCC2` [Compound 1], the “Target engagement: labeling of USP28 by covalent Ub-VME probe” value is “prevents labeling of USP28 by the covalent Ub-VME probe”.
